Measured values as given in patent US9241927B2, “Pharmaceutical compositions comprising sigma receptor ligands” (Laboratories Del Dr, Esteve, S.A., priority 2009, dated 2016).

Key:
pKa of API-001 = type: physicochemical
Text: (§1) API-001 has a pKa 6.8, being a weakly basic drug and having a solubility strongly influenced by pH of the medium.

[1] = pH solubility profile of API-001; type: physicochemical
Text: as §1
Therefore, it is expected that the extrusion-spheronization pellets of the invention to be absorbed over all the intestinal tract.

What does the source list for `Cc1cc(OCCN2CCOCC2)nn1-c1ccc2ccccc2c1.Cl` [API-001, 4-{2-[5-Methyl-1-(naphthalen-2-yl)-1H-pyrazol-3-yloxy]ethyl}morpholine hydrochloride]?
pKa (pKa of API-001): 6.8; pH solubility profile ([1]; FIG. 2): solubility of API-001 is decreasing when is increasing the pH of the medium; solubility ([1]; pH 6.8, aqueous buffer): 600 µg/mL
